Results: patent publication US5711966A, “Method of treating malaria with desbutylhalofantrine” (priority 1996, dated 1998)
“Also recorded” adds a separate entry of the source. Like-named read-outs stand apart in the source and are kept apart here.

What was measured:
[1] = tested on: delayed rectifier potassium channel; assay: Block of repolarizing current (delayed rectifier potassium channel) in isolated ventricular myocytes, whole cell patch-clamp; format: cell-based; conditions: isolated feline myocytes
Experimental: (§1) A comparison of the parent drug, halofantrine with the metabolite desbutylhalofantrine was conducted to determine which agent was primarily responsible for QT interval prolongation. The effects of halofantrine and its active metabolite (N-desbutylhalofantrine) on repolarization were examined in an isolated perfused heart model. […] In an attempt to further elucidate the mechanism for QT interval prolongation, the effects of racemic halofantrine, its stereoisomers and N-desbutylhalofantrine on repolarizing currents in isolated ventricular myocytes were studied using patch-clamp techniques.
Individual Cardiac Myocytes:
The cardiac electro-pharmacologic effects of halofantrine, its stereoisomers and N-desbutylhalofantrine on repolarizing currents such as the delayed rectifier potassium channel were studied in feline ventricular myocytes in vitro by the method described by Woosley, et al. (JAMA 269:1532-1536 (1993)). Briefly, rod-shaped and quiescent ventricular cells were obtained and used for electrophysiological recordings using the whole cell, single-suction pipette, voltage-clamp ("patch-clamp") technique. Computer-controlled voltage clamp pulses (duration 750 ms) were used to elicit currents. Current signals were directed to a computer for storage and data analysis. […]

[2] = cited from earlier work; for arrhythmia torsades de pointes: in patients receiving the drug; for cardiotoxicity / potentially fatal arrhythmias: use for treatment of malaria
[3] = tested on: isolated perfused cat heart (QT interval); assay: QT interval prolongation in isolated perfused heart; conditions: concentrations from 1 to 20 μM, pacing cycle length 400 msec
Experimental: Comparative studies evaluating prolongation of the QT interval using quinidine, halofantrine, and desbutylhalofantrine were performed on isolated perfused animal hearts. […] The ability to treat malaria with this metabolite without causing cardiotoxicity greatly improves the safety of antimalarial treatment.
as §1
The effects of halofantrine and its metabolite on repolarization were examined in the isolated perfused cat heart by the method of Woosley, et al. (JAMA 269:1532-1536 (1993)). Briefly, hearts were obtained from healthy, mature anesthetized cats and perfused in a Lagendorff apparatus maintained at 37° C. […] The AV node was destroyed by cautery to produce complete heart block and allow observations at slow cycle lengths. […]

malaria = conditions: teaching of U.S. Pat. No. 5,250,734 to Rossignol, et al; cited from earlier work
Plasmodium falciparum = assay: In vitro studies against various clones of Plasmodium falciparum; format: cell-based
Experimental: Dosage of 500 mg every six hours for three doses on day one with repeat of that dosage on day 7 for a total dosage of 3000 mg is appropriate for most treatment purposes in adults. However, total dosage range of 50 to 5000 mg can be given depending on the condition, age and size of the patient. Desbutylhalofantrine may also be given at dosage of 50 to 1000 mg as a prophylactic measure. Dosage may be given daily or one day per week. Again, dosage will be determined by the clinician in accord with the needs of the particular patient. When given as a prophylactic agent, the administration may be continued for several months.

Row | SMILES | arrhythmia torsades de pointes [2] | prolongation of the QT interval [3] | further results
1 | CCCCN(CCCC)CCC(O)c1cc2c(Cl)cc(Cl)cc2c2cc(C(F)(F)F)ccc12 (racemic) [halofantrine] | torsades de pointes has been seen in patients | resulted in prolongation of the QT interval | block of the delayed rectifier potassium channel [1]: produced a stereo-selective block of the delayed rectifier potassium channel; cardiotoxicity / potentially fatal arrhythmias [2]: can induce potentially fatal arrhythmias; cardiotoxicity / potentially fatal arrhythmias ([2]; listed as Halofantrine): has been shown to cause cardiotoxicity
2 | CCN(CC)CCCC(C)Nc1ccnc2cc(Cl)ccc12 (centres unmarked) [chloroquine] | torsades de pointes has been seen in patients |  | 
3 | CCCCNCCC(O)c1cc2c(Cl)cc(Cl)cc2c2cc(C(F)(F)F)ccc12 (centres unmarked) [desbutylhalofantrine] |  | did not prolong the QT interval even when concentrations were increased to twenty fold the concentration at which halofantrine resulted in prolongation of the QT interval; also recorded: had minimal effect on the QT interval relative to the baseline | effectiveness for treatment of malaria relative to halofantrine (malaria): less effective than halofantrine for treatment of malaria; potency relative to parent compound halofantrine against clones of Plasmodium falciparum (Plasmodium falciparum): approximately equipotent with the parent compound
4 | C=C[C@H]1C[N@@]2CC[C@H]1C[C@@H]2[C@@H](O)c1ccnc2ccc(OC)cc12 [quinidine] | torsades de pointes has been seen in patients |  | 
5 | C=C[C@H]1C[N@@]2CC[C@H]1C[C@H]2[C@H](O)c1ccnc2ccc(OC)cc12 [quinine] | torsades de pointes has been seen in patients |  | 
